Results reported in US8129426B2, “Water-soluble artemisinin derivatives, their preparation methods, the pharmaceutical compositions and the use thereof” (priority 2005, dated 2012).

Legend:
[1] = tested on: T-cell proliferation (Con A); assay: Lymphocyte proliferation test, T-cell proliferation stimulated with Con A; format: cell-based, Balb/c mice; set-up: concentration or dose not given beside the values; settings: concentration without any cytotoxicity; screened at 10, 1 and 0.1 μm
Method: (§1) Experimental animals: inbred Balb/c male mice, 6-8 weeks old.
(§2) RPMI-1640 culture solution (Roswell Park Memorial Institure-1640 medium, from GibcoBRL, Life Technologies, USA) with 10% fetal bovine serum (FBS), 100 U/mL penicillin, 100 μg/mL streptomycin, 10 mM HEPES (4-(2-hydroxyethyl)-1-piperazineethane sulfonic acid) and 50 μM 2-ME (2-Mercaptoethanol).
(§3) Stimulant: Concanavalin (ConA), and bacterial Lipopolysaccharide (LPS, from Escherichia Coli 055: B5), diluted with RPMI-1640 culture solution to suitable concentration before using.
(§4) [2] Lymphocyte Proliferation Test
(§5) 1) Mice were killed by cervical dislocation, and their spleens were collected aseptically and prepared into a single cell suspension. The cell concentration was adjusted to 4×10^6/mL with RPMI-1640 medium containing 10% FBS.
(§6) 2) 100 μL cell suspension, 50 μL testing sample solution, 50 μL ConA or LPS solution were added into a 96-well plate, and for the control group, 50 μL medium containing 10% FBS was added. The total volume was 200 μL.
(§7) 3) The cell culture was incubated in 5% CO2 incubator at 37 °C for 48 hours, and 0.5 μCi [^3H]-thymidine (25 μL/well) was added into each well 7-8 hours before the termination of the incubation.
(§8) 4) After the incubation was terminated, the cells were harvested on a glassfiber film with a cell harvestor (HARVESTER96®, TOMTEC), and after scintillation fluid was added, the incorporation of [^3H]-thymidine in the cell DNA was measured with a liquid scintillation counter (MicroBeta Trilux®, PerkinElmer) to indicate the state of cell proliferation.

[2] = tested on: B-cell proliferation (LPS); assay: Lymphocyte proliferation test, B-cell proliferation stimulated with LPS; format: cell-based, Balb/c mice; settings: concentration without any cytotoxicity; screened at 10, 1 and 0.1 μm
Method: as §1, §2, §3, §4, §5, §6, §7, §8

[3] = tested on: response lymphocytes in MLR; assay: Homologous and heterogeneous mixed lymphocyte proliferation reaction (MLR); format: cell-based, C57BL/6 and Balb/c mice; settings: read-out: EC50, inhibition of proliferation of the response lymphocytes in MLR
Source text: [3] Homologous and Heterogeneous Mixed Lymphocyte Proliferation Reaction (MLR)
1) C57BL/6 and Balb/c mice were killed by cervical dislocation, and their spleens were collected aseptically and levigated into a single cell suspension. After removing the erythrocytes, the cell concentration was adjusted to 6×10^6/mL with RPMI-1640 medium containing 10% FBS.
2) The spleen cells of C57BL/6 mice as the response cells and the spleen cells of Balb/c mice (irradiated with Co60, 3000 rads) as the stimulus cells were mixed in equal volumes.
3) 100 μL cell mixture, 100 μL testing sample were added into a 96-well plate. For the control group, 100 μL medium containing 10% serum was added. And single culture controls of the two kinds of cells were set.
4) The cell cultures were incubated in 5% CO2 incubator at 37 °C for 3, 4 or 5 days. 25 μL ^3H diluent (i.e. […] [^3H]-thymidine) was added one day before the termination of the incubation.
5) After the incubation was terminated, the plate was freezed in a −20[…] refrigerator.
6) The cells were harvested on a glassfiber film with a cell harvestor (HARVESTER96′, TOMTEC), and the incorporation of [^3H]-thymidine in DNA was measured with a liquid scintillation counter (MicroBeta Trilux®, PerkinElmer) to indicate the state of cell proliferation.

DTH mice = assay: Delayed hypersensitive response animal model (DTH); format: in vivo; settings: for thickness difference of swelling on ears: FIG. 1, DTH mice; for weight difference of ear slices: FIG. 2, DTH mice
Method: [4] Delayed Hypersensitive Response Animal Model (DTH)
1) The sensitization was induced by topical application of 20 μL of 0.5% (v/v) DNFB in acetone: olive oil (4:1) onto each rear paw of mice on day 0 and 1;
2) Excipient and testing compounds were given by the oral route 1 day before challenge and then once a day for 2 days (days 8-10);
3) The mice were challenged by application of 10 μL of 0.5% (v/v) DNFB on the inner and outer surfaces of the right ear on day 9;
4) The increase in the ear patch weight (8-mm punches) and ear thickness between the left and right ear was measured 30-48 h after challenge.

[4] = tested on: mice arthritis induced by bovine collagen type II; assay: Mice arthritis model induced by bovine collagen type II; format: in vivo, DBA/1 mice; settings: for scorings of the arthritis degree: FIG. 3 and FIG. 4, with and without the compound; for swelling of the mice' joints: oral, p<0.05

| Compound | inhibiting rate to T-cell proliferation (Con A) [1] [%] | inhibiting rate to B-cell proliferation (LPS) [2] [%] | other results |
| --- | --- | --- | --- |
| CC1CCC2C(C)C(OCCN)OC3OC4(C)CCC1C32OO4 (stereo not drawn) [Example 1, 2′-amino arteether (β type)] | 65 | 73 | EC50 [3]: 3480 ± 720 nM; thickness difference of swelling on ears (DTH mice): obviously reduced the swelling degree on ears; weight difference of ear slices (DTH mice): obviously reduced the weight of swelling ears; inhibiting rate of swelling of the ear of mice compared with the control group (DTH mice; oral, 50 mg/kg, p<0.01): 56.5%; scorings of the arthritis degree [4]: can prevent and cure the mice arthritis induced by bovine collagen type II and inhibit the swelling of the sicked joints; swelling of the mice' joints ([4]; 1 mg/kg): obviously reduce the swelling of the mice' joints |
| CC1CCC2C(C)C(OCC(O)CN)OC3OC4(C)CCC1C32OO4 (stereo not drawn) [Example 2, 3′-amino-2′-hydroxy-artemisinin propyl ether (β type)] | 48 | 48 |  |
| CNCC(O)COC1OC2OC3(C)CCC4C(C)CCC(C1C)C24OO3 (stereo not drawn) [Example 3, 3′-methylamino-2′-hydroxy-artemisinin propyl ether (β type)] | 47 | 51 |  |
| CC1CCC2C(C)C(OCC(O)C(N)c3ccccc3)OC3OC4(C)CCC1C32OO4 (stereo not drawn) [Example 8, 3′-phenyl-3′-amino-2′-hydroxy-artemisinin propyl ether (β type)] | 13 | 42 |  |
| CC1CCC2C(C)C(OCC(O)CN3CCCC3)OC3OC4(C)CCC1C32OO4 (stereo not drawn) [Example 11, 3′-pyrrolidinyl-2′-hydroxy-artemisinin propyl ether (β type)] | 48 | 99 | thickness difference of swelling on ears (DTH mice): obviously reduced the swelling degree on ears; weight difference of ear slices (DTH mice): obviously reduced the weight of swelling ears; inhibiting rate of swelling of the ear of mice compared with the control group (DTH mice; oral, 100 mg/kg, p<0.01): 50.5% |
| CC1CCC2C(C)C(OCC(O)CN3CCCCC3)OC3OC4(C)CCC1C32OO4 (stereo not drawn) [Example 12, 3′-piperidyl-2′-hydroxy-artemisinin propyl ether (β type)] | 47 | 47 |  |
| CC1CCC2C(C)C(OCC(O)CNC(C)(C)C)OC3OC4(C)CCC1C32OO4 (stereo not drawn) [Example 14, 3′-tert-butylamino-2′-hydroxy-artemisinin propyl ether (β type)] | 52 | 81 | EC50 [3]: 670 ± 12 nM; thickness difference of swelling on ears (DTH mice): obviously reduced the swelling degree on ears; weight difference of ear slices (DTH mice): obviously reduced the weight of swelling ears; inhibiting rate of swelling of the ear of mice compared with the control group (DTH mice; oral, 50 mg/kg, p<0.01): 52.2%; scorings of the arthritis degree [4]: can prevent and cure the mice arthritis induced by bovine collagen type II and inhibit the swelling of the sicked joints; swelling of the mice' joints ([4]; 0.5 mg/kg): obviously reduce the swelling of the mice' joints |
| CC1CCC2C(C)C(OCC(O)C(c3ccccc3)N3CCCCC3)OC3OC4(C)CCC1C32OO4 (stereo not drawn) [Example 16, 3′-phenyl-3′-piperidyl-2′-hydroxy-artemisinin propyl ether (β type)] | 0 | 51 |  |
| CC1CCC2C(C)C(OCC(O)C(c3ccccc3)N(C)C)OC3OC4(C)CCC1C32OO4 (stereo not drawn) [Example 17, 3′-phenyl-3′-dimethylamino-2′-hydroxy-artemisinin propyl ether (β type)] | 6 | 24 |  |
| CC1CCC2C(C)C(OCC(O)C(NC(C)(C)C)c3ccccc3)OC3OC4(C)CCC1C32OO4 (stereo not drawn) [Example 18, 3-phenyl-3′-tert-butylamino-2′-hydroxy-artemisinin propyl ether (β type)] | 9 | 26 |  |
| cyclosporine A [reference compound] |  |  | inhibiting rate of swelling of the ear of mice compared with the control group (DTH mice; 5 mg/kg): 40.6% |
